Structures can show the parent of a compound that is named as a salt.
How the values were obtained:
[1] = tested on: sensitized rats (passive cutaneous anaphylaxis); assay: passive cutaneous anaphylaxis (PCA) in sensitized rats; type: in vivo; details: po; rat p.o.
in vivo = details: po, mouse p.o.
[2] = tested on: sensitized rats (passive lung anaphylaxis); assay: animal or person; details: Rattus norvegicus, iv, read-out: PLA ED50
Protocol: (a) Tests in sensitized rats were performed after passive sensitization of the animals by IgE-antibodies and subsequent antigen challenge. In this manner a passive cutaneous anaphylaxis (GOOSE et al. (1969): Immunology 16, 749) (PCA) and a passive lung anaphylaxis ([…] et al. (1975): Br. J. Pharmac. 55, 57) (PLA, experimental asthma) could be provoked.

Cl.NC1=NCC2c3ccccc3Cc3cc(Cl)ccc3N12 (centres unmarked) [Example 1(a), 3-amino-7-chloro-9,13b-dihydro-1H-dibenzo[c,f]-imidazo[1,5-a]azepine hydrochloride]
ED50 [1]: 0.96 mg/kg

Br.NC1=NCC2c3ccccc3Oc3ccccc3N12 (centres unmarked) [Example 1(c), 3-amino-1,13b-dihydro-dibenzo[b,f]imidazo[1,5-d][1,4]-oxazepine hydrobromide]
ED50 [1]: 1.1 mg/kg
LD50 (in vivo): 340 mg/kg

NC1=NCC2c3ccccc3Cc3ccccc3N12 (centres unmarked) [Example 1, 3-Amino-9,13b-dihydro-1H-dibenzo[c,f]imidazo[1,5-a]azepine hydrobromide]
ED50 [1]: 6 mg/kg
ED50 [2]: 0.052 mg/kg

Br.NC1=NCC2c3cc(Cl)ccc3Sc3ccccc3N12 (centres unmarked) [Example 1(l), 3-amino-12-chloro-1,13b-dihydro-dibenzo[b,f]imidazo[1,5-d][1,4]thiazepine hydrobromide]
ED50 [1]: 5.4 mg/kg

NC1=NCC2c3cc(Cl)ccc3Oc3ccccc3N12 (centres unmarked) [Example 1(d), 3-amino-12-chloro-1,13b-dihydro[b,f]imidazo[1,5-d][1,4]oxazepine hydrobromide]
ED50 [1]: 2.5 mg/kg

Br.NC1=NCC2c3ccccc3Sc3ccccc3N12 (centres unmarked) [Example 1(i), 3-amino-1,13b-dihydro-dibenzo[b,f]imidazo[1,5-d][1,4]-thiazepine hydrobromide]
ED50 [1]: 3.8 mg/kg
